Experimental data from patent US10278395B2, “Functionalized environmentally benign nanoparticles” (North Carolina State University, priority 2013, dated 2019).

How the values were obtained:
E. coli BL21 (DE3) = assay: Quantitative antimicrobial test on E. coli (wet method, CFU reduction efficiency); type: cell-based, Escherichia coli; details: for CFU reduction efficiency: 40 ppm
Experimental: We performed quantitative antimicrobial tests on Gram-negative E. coli BL21 (DE3), a common human pathogen, and qualitative tests on Gram-negative P. aeruginosa, a human pathogen not susceptible to antimicrobial amines such as BPEI and […]. Therefore, any antimicrobial activity in the P. aeruginosa tests will predominantly stem from silver. The activity of each active agent was determined by comparing the number of colony forming units (CFU) of a reference plate with the CFU of a test plate as depicted in FIG. 20. The reduction of CFU on a test plate with antimicrobial agent is time dependent and concentration dependent. […] We quantified by the antimicrobial reduction efficiency “E” with the following equation The schematic in FIG. 21 describes the wet method procedure that was followed for antimicrobial tests on both E. coli and P. aeruginosa. First, 200 μl of each active agent was placed into separate low retention centrifuge tubes. 100 μl of PBS buffer was added to each tube to baseline the ionic strength, and to adjust the pH value to 7. […] The samples were continuously vortexed. After the bacteria were exposed to the active agent for 1 minute, the survival rate of the bacteria was determined by plating 100 μl of each sample evenly distributed on Luria-Bertani agar plates. The procedure was repeated after 30 minutes of exposure time. After the plating procedure, the petri dishes were sealed and incubated upside-down for 48 h at 37° C.

Pseudomonas aeruginosa = assay: Qualitative antimicrobial test on P. aeruginosa (wet method, growth on plates); type: cell-based; details: for antimicrobial effect (in words): 30 minutes incubation time
Experimental: We performed quantitative antimicrobial tests on Gram-negative E. coli BL21 (DE3), a common human pathogen, and qualitative tests on Gram-negative P. aeruginosa, a human pathogen not susceptible to antimicrobial amines such as BPEI and […]. Therefore, any antimicrobial activity in the P. aeruginosa tests will predominantly stem from silver. The activity of each active agent was determined by comparing the number of colony forming units (CFU) of a reference plate with the CFU of a test plate as depicted in FIG. 20. The reduction of CFU on a test plate with antimicrobial agent is time dependent and concentration dependent. The schematic in FIG. 21 describes the wet method procedure that was followed for antimicrobial tests on both E. coli and P. aeruginosa. First, 200 μl of each active agent was placed into separate low retention centrifuge tubes. 100 μl of PBS buffer was added to each tube to baseline the ionic strength, and to adjust the pH value to 7. […] The samples were continuously vortexed. After the bacteria were exposed to the active agent for 1 minute, the survival rate of the bacteria was determined by plating 100 μl of each sample evenly distributed on Luria-Bertani agar plates. The procedure was repeated after 30 minutes of exposure time. After the plating procedure, the petri dishes were sealed and incubated upside-down for 48 h at 37° C.

O=[N+]([O-])[O-].[Ag+] [AgNO3, silver nitrate]
Ag concentration at which antimicrobial effects were exhibited (E. coli BL21 (DE3)): 40 ppm Ag | CFU reduction efficiency (E. coli BL21 (DE3); 1 min vortex time): 53.33% | CFU reduction efficiency (E. coli BL21 (DE3); 30 min vortex time): 96.19% | Pseudomonas aeruginosa growth (Pseudomonas aeruginosa; 1 min vortex time or contact time, 10 ppm): Yes | Pseudomonas aeruginosa growth (Pseudomonas aeruginosa; 1 min vortex time or contact time, 20 ppm): Yes | antimicrobial effect (in words) (Pseudomonas aeruginosa; 20 ppm Ag): no complete antimicrobial effect | antimicrobial effect (in words) (Pseudomonas aeruginosa; concentration not given): no complete antimicrobial effect | Pseudomonas aeruginosa growth (Pseudomonas aeruginosa; 30 min vortex time or contact time, 10 ppm): Yes | Pseudomonas aeruginosa growth (Pseudomonas aeruginosa; 30 min vortex time or contact time, 20 ppm): Yes
